Experimental data published in BindingDB's records for doi:10.7270/Q2QC01XF (Nmmlsc, 2009).

Biological target: Ras-related protein Rab-2A (Canis lupus familiaris, UniProt P61105)
Assay: Rab2 wildtype GTP-binding inhibitors, SAR follow-up, biochemical, additional analogs, bead-based flow cytometry, multiplex (AID 2046)

Ras-related protein Rab-2A, sequence (P61105 whole entry): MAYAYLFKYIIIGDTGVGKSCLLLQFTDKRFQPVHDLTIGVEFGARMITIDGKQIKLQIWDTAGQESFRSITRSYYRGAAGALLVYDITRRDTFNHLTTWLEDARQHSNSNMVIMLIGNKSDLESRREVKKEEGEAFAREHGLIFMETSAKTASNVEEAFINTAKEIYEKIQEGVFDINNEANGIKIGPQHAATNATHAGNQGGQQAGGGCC

| Ki [µM] | SMILES |
| --- | --- |
| 4.15 | O=C1N=c2ccc(Br)cc2=C1c1[nH]c2ccccc2c1NO [5-bromanyl-3-[3-(oxidanylamino)-1H-indol-2-yl]indol-2-one] |
| 4.19 | O=C1N=c2c(Br)cccc2=C1c1[nH]c2ccccc2c1NO [7-bromanyl-3-[3-(oxidanylamino)-1H-indol-2-yl]indol-2-one] |
